Data reported in article PMC9479156 (Frontiers in Pharmacology, 2022).
Read-outs that look alike come from different tables or passages of the source.

What was measured:
[1] = test system: A549 human lung carcinoma; assay: MTT cytotoxicity assay A549; assay type: cell-based; details: for SI, selectivity index IC50 normal cell line/IC50 tumour cell line: BEAS-2B/A549; for IC50: Homo sapiens, read-out: IC50 A549
Procedure: (§1) Proliferative and non-proliferative mammalian cell lines: human liver and lung cancer cell lines HepG2 and A549, and immortalized normal liver LO2 and lung BEAS-2B cells were purchased from ATCC (Manassas, VA, United States). Cells were cultured in RPMI-1640 medium supplemented with 10% fetal bovine serum and antibiotics penicillin (50 U/mL) and streptomycin (50 μg/ml; Invitrogen, United Kingdom). All cells were incubated at 37°C in a 5% humidified CO2 incubator.
(§2) All test compounds were dissolved in DMSO at a final concentration of 50 mM and stored at −20°C before use. Cytotoxicity was assessed with A549, HepG2, BEAS-2B and LO2 cells. The MTT assay with 3-(4,5-dimethylthiazole-2yl)-2,5-diphenyltetrazolium bromide (5 mg/ml) was performed as previously described ([Ng et al., 2022]). Briefly, 4 × 10^3 cells per well were seeded in 96-well plates before drug treatment. After overnight cell culture, the cells were exposed to different concentrations of selected compounds (0.19–100 μM) for 72 h. Cells without drug treatment were used as control. Next, 10 μl of the MTT solution was added to each well and incubated at 37°C for another 4 h. Solubilization buffer (100 μl) was then added (10 mM HCl in a solution of 10% of SDS) and incubated overnight. The absorbance A at 570 nm was measured on the next day. The percentage of cell viability was calculated using the following formula: Cell viability (%) = Atreated/Acontrol × 100. Dose response curves for all assays are given in the Supplementary Figures S3–S6.
(§3) Cytotoxicity was assessed for each of artemisinin, DHA and artemether, and the amino-artemisinins artemiside and artemisone, and celastrol against A549 human lung carcinoma, BEAS-2B non-tumorigenic human bronchial epithelium, HepG2 liver hepatocellular carcinoma and LO2 human normal hepatocytes using the MTT assay ([Ng et al., 2022]). Data are presented in Table 4, and dose response curves are given in the Supplementary Figures S3–S6.

[2] = test system: BEAS-2B non-tumorigenic human bronchial epithelium; assay: MTT cytotoxicity assay BEAS-2B; assay type: cell-based; details: 72 h, read-out: IC50 BEAS-2B
Procedure: as §1, §2, §3

[3] = test system: HepG2 liver hepatocellular carcinoma; assay: MTT cytotoxicity assay HepG2; assay type: cell-based, human; details: for IC50: Homo sapiens, read-out: IC50 HepG2; for SI, selectivity index IC50 normal cell line/IC50 tumour cell line: LO2/HepG2
Procedure: as §1, §2, §3

[4] = test system: LO2 human normal hepatocytes; assay: MTT cytotoxicity assay LO2; assay type: cell-based; details: Hepatocyte, 72 h, read-out: IC50 LO2
Procedure: as §1, §2, §3

[5] = test system: HepG2 liver hepatocellular carcinoma; assay: Cytotoxicity drug combination (isobole) assay HepG2; assay type: cell-based, human
Procedure: (§4) For the drug combination inhibitory assays, six drug preparations, of which four comprised combinations of either artemiside or artemisone with celastrol in a fixed ratio of 80:20, 60:40, 40:60, and 20:80 were prepared and screened against HepG2 liver hepatocellular carcinoma and LO2 human normal hepatocytes respectively. Two of these six preparations employed each of artemiside, artemisone or celastrol alone at a concentration approximately 5–7 times higher than the IC50 of the individual drug as presented in Table 4. […] Thus, six combinations for artemiside (µM) and celastrol (µM) prepared were 500:0, 400:4, 300:8, 200:12, 100:16, and 0:20, respectively.
(§5) As above for the malaria combination assays, a mean ΣFIC<1.0 represents a synergistic interaction, >1.3 represents an antagonistic interaction and ΣFIC = 1 represents an indifferent or additive interaction. Additivity, synergism and antagonism were also be established from the linear plots constructed from the FIC values of each of the drugs. A concave hyperbolic plot indicates synergism, a convex hyperbolic plot indicates an antagonistic interaction, and a straight line indicates an additive interaction. Isobole analysis of the combinations of each of artemiside and artemisone in combination with celastrol was performed against HepG2 and LO2 cells respectively. In Figure 5 is presented the isoboles for each drug combination.
(§6) Next, combinations of each of artemiside and artemisone with celastrol were examined, according to the method used to establish additivity/synergism described above. […] Against the normal hepatocyte LO2 cell line, whilst the interaction of artemisone with celastrol was synergistic, that of artemiside was additive. Synergism and additivity were also evident from the linear plots determined from the FIC values of each of the drugs (Table 5 and Figure 6). Thus, synergism is confirmed for combinations of the amino-artemisinins with celastrol against the HepG2 carcinoma cell line, and for artemisone-celastrol against human normal hepatocyte LO2.

[6] = test system: LO2 human normal hepatocytes; assay: Cytotoxicity drug combination (isobole) assay LO2; assay type: cell-based
Procedure: as §4, §5, §6

[7] = artemisone:celastrol drug ratio 20:80, HepG2
[8] = artemisone:celastrol drug ratio 40:60, HepG2
[9] = artemisone:celastrol drug ratio 60:40, HepG2
[10] = artemisone:celastrol drug ratio 80:20, HepG2
[11] = artemisone:celastrol drug ratio 20:80, LO2
[12] = artemisone:celastrol drug ratio 40:60, LO2
[13] = artemisone:celastrol drug ratio 60:40, LO2
[14] = artemisone:celastrol drug ratio 80:20, LO2

Compound | SI, selectivity index IC50 normal cell line/IC50 tumour cell line [1] | SI, selectivity index IC50 normal cell line/IC50 tumour cell line [3] | FIC [5, 7] | FIC [5, 8] | FIC [5, 9] | FIC [5, 10] | FIC [6, 11] | FIC [6, 12] | FIC [6, 13] | FIC [6, 14] | further results
CC1=C(O)C(=O)C=C2C1=CC=C1[C@@]2(C)CC[C@@]2(C)[C@@H]3C[C@](C)(C(=O)O)CC[C@]3(C)CC[C@]12C [Celastrol, celastrol] | 0.16 | 0.83 | 0.88 | 0.4 | 0.23 | 0.14 | 0.7 | 0.4 | 0.29 | 0.23 | IC50 ([1]; A549, 72 h): 2830 ± 120 nM; IC50 [2]: 450 ± 100 nM; IC50 ([3]; HepG2, 72 h): 940 ± 100 nM; SI, selectivity index IC50 normal cell line/IC50 tumour cell line ([3]; listed as celastrol): < 1; IC50 [4]: 780 ± 200 nM; FIC ([5]; artemiside:celastrol drug ratio 20:80, HepG2): 0.35; FIC ([5]; artemiside:celastrol drug ratio 40:60, HepG2): 0.34; FIC ([5]; artemiside:celastrol drug ratio 60:40, HepG2): 0.14; FIC ([5]; artemiside:celastrol drug ratio 80:20, HepG2): 0.08; FIC ([6]; artemiside:celastrol drug ratio 20:80, LO2): 1.2; FIC ([6]; artemiside:celastrol drug ratio 40:60, LO2): 1.56; FIC ([6]; artemiside:celastrol drug ratio 60:40, LO2): 1.03; FIC ([6]; artemiside:celastrol drug ratio 80:20, LO2): 0.48
C[C@H]1[C@H](N2CCS(=O)(=O)CC2)O[C@@H]2O[C@@]3(C)CC[C@H]4[C@H](C)CC[C@@H]1[C@@]24OO3 [Artemisone, artemisone] | <0.7 | >171 | 0.3 | 0.36 | 0.48 | 0.76 | 0.18 | 0.28 | 0.47 | 0.99 | IC50 ([1]; A549, MTT, 72 h, ± SD): > 100000 nM; IC50 ([2]; MTT, ± SD): 73600 ± 1400 nM; IC50 ([3]; HepG2, MTT, 72 h, ± SD): 580 ± 200 nM; SI, selectivity index IC50 normal cell line/IC50 tumour cell line ([3]; listed as artemisone): > 170; IC50 ([4]; MTT, ± SD): > 100000 nM
